Results taken from patent US8026069B2, “Process for identification of compounds for modulating the activity of sodium/calcium exchange transporter” (Sanofi-Aventis Deutschland GmbH, priority 2004, dated 2011).

Target: T1, NCX1-containing HEK membrane fragments (human cardiac sodium calcium exchanger NCX-1) (Homo sapiens, UniProt P32418)
T1 construct: expressed in transfected cells; host or cells: HEK-293 (Flp-In T-Rex-293-NCX1, DSM ACC2670), doxycycline-induced; membrane fragments
Assay: cell free electrophysiological sensor chip (SurfE2R) NCX assay, current on Ca2+ concentration jump
Format: biochemical
Conditions: 5 mM
Experimental: 10-30 μl, for example, of NCX-containing membrane fragments were applied and circulated on the sensor chip and preferably incubated for at least 12 hours at 4° C. In preferred cases of experiments the NCX protein is a human NCX1 protein. The capacitance of the protein-loaded sensor chip was preferably around 100 nF cm^−2 and the conductance G1s preferably around 10 nS cm^−2. The principal of the assay is to test the electrical activity of NCX protein in the absence of the inhibitor and afterwards in the presence of the inhibitor. For this reason the NCX-sensor chip is rinsed with a sequence of solutions, which activate NCX. In general, there is the possibility to test whether an inhibitor is reversible. In this case after the inhibitor application the solutions are changed back to inhibitor-free conditions. Before the experiment the solution reservoirs of the chip are filled with the following preferred solutions: washing buffer: 40 mM KCl, 100 mM NaCl, 4 mM MgCl2, 30 mM HEPES/NMG pH 7.4; non-activating solution: 140 mM KCl, 4 mM MgCl2, 30 mM HEPES/NMG pH 7.4; activating solution: 140 mM KCl, 4 mM MgCl2, 30 mM HEPES/NMG pH 7.4, 0.5 mM CaCl2. […]
For the determination of its activity, the NCX protein was treated consecutively with a washing, non-activating and activating solution and the electrical current was measured when changing from […] to activating treatment. […]

[Ni+2] [Ni^2+]
effect on NCX current in control experiments: diminished
